Series [1] can be described thus: Intraduodenal (id) bioavailability screen in minipigs, plasma level of parent Mn complex by HPLC/MS/MS. The series is classed as in vivo, Gottingen minipig. As to conditions: id 10 mg/kg, vs 1 mg/kg iv parent chloro complex, AUC0→24 h. As for the experimental part: Compounds were screened for oral bioavailability by injecting the formulated prodrugs directly into the duodenum (intraduodenal or id administration) of the minipig test subjects, thus bypassing the acidic environment of the stomach and thereby eliminating potentially misleading oral bioavailability results that could arise from alteration of the test article drug in the acid environment of the stomach.
The studies were conducted at Xenometrics LLC (Stillwell, Kans.) and the id bioavailability was determined using various axial ligand derivative complexes of GC4419, GC4444, GC4403 and GC4401.
Male Gottingen minipigs (4-5 mo old, 9-12 kg weight) were purchased from Marshall BioResources and housed at Xenometrics. […] The distal end was exteriorized with a reusable accessible hub (see surgical details below). During a recovery period of at least 2 weeks the minipigs were handled daily to acclimate them to the test procedures, i.e., id dosing and blood collections. For each experiment, each minipig received a test article drug dissolved or suspended in an excipient vehicle. […] All dosing experiments were conducted in fasted animals. Food was withdrawn from the minipigs 16 hours before dosing. The minipigs had ad libitum access to water. Dosed minipigs were allowed access to food 6 hour after dosing. The test article was administered at a dose of 10 mg/kg parent drug in 0.1 mL/kg vehicle (e.g., 1.5 mL in 15 kg minipig) as a bolus injection (˜1 minute) via the id cannula. The actual amount of total test article drug administered varied with the formula weight of the prodrug. An equal volume of excipient vehicle was used to flush the cannula after the test article was administered. Approximately 6 hours later, corn oil was used to flush the cannula. After approximately 24 hours post-dose, the catheter was flushed with sterile saline solution and capped. At the following time-points 0.25, 0.5, 1, 2, 4, 8, 24 and 48 hour post-injection, 2 mL blood samples were collected by cranial vena cava puncture (4 mL Sodium heparin Vacutainer, 20 g 1.5″ needle) after the skin surface was wiped with ethanol. The minipig was placed in a sling in a recumbent position without anesthesia for the collection of blood samples. The minipigs were never used more than once per 7 days for experimentation. The blood samples were kept on ice until processed for plasma. Blood samples were centrifuged at 1200×g for ten minutes at 4° C. and plasma samples were transferred to 96 well plate tubes, capped and stored at −20° C. until shipment on dry ice to the analytical laboratory used for measuring the concentration of drug in the plasma. The concentration of the parent manganese pentaaza macrocylic ring complex (independent of the composition of the axial ligands) was measured in plasma using a validated HPLC/MS/MS method that is linear between 50 ng/mL and 20,000 ng/mL.
The oils used for preparing the dosing solutions were used as supplied from commercial sources. The Capmul MCM (NF) is a mixture of mono/diglycerides of caprylic/capric acids and was supplied by ABITEC Corporation, Janesville, Wis. The Miglyol 812 N is a mixture of caprylic/capric acid triglycerides and was supplied by Cremer Oleo Division, Eatontown, N.J. Labrafil M 2125 CS (NF) is chemically defined to be linoleoyl polyoxyl-6 glycerides NF and was supplied by Gattefosse, SAINT-PRIEST Cedex, France. Peceol is chemically defined to be the monoglyceride, glyceryl monooleate NF, and was supplied by Gattefosse, SAINT-PRIEST Cedex, France. Maisine 35-1 is chemically defined to be the monoglyceride glyceryl monolinoleate (NF) and was supplied by Gattefosse, SAINT-PRIEST Cedex, France. Labrasol (NF) is chemically defined to be caprylocaproyl polyoxyl-8 glycerides NF and was supplied by Gattefosse, SAINT-PRIEST Cedex, France. Labrafil M 1944 CS is chemically defined to be oleoyl polyoxyl-6 glycerides (NF), and is available from Gattefosse, SAINT-PRIEST Cedex, France. […]

In series [2] the test system is rats subjected to an experimental model of colitis. As to conditions: ip injection; cited from earlier work.
The subject of series [3] is hamster model of acute, radiation-induced oral mucositis. As to conditions: ip; cited from earlier work.
Series [4] has as its system lethal total body irradiation of adult mice. Particulars: ip; cited from earlier work.
Series [5] relates to rat model of inflammation. As to conditions: ip; cited from earlier work.
For series [6], the system named is rat model of collagen-induced arthritis. As to conditions: ip; cited from earlier work.
A short description of the next series: Solubility in water. The series is classed as physicochemical.
Series [7] relates to VEGFr inhibitor-induced pulmonary disease. As to conditions: ip, rat model; cited from earlier work.
In series [8] the test system is oral mucositis in head-and-neck cancer patients. As to conditions: intravenous (iv) infusion, head-and-neck cancer patients undergoing chemoradiation therapy; cited from earlier work.
Setting [9] is: base oil Capmul MCM, 10% by weight.
Where [10] appears, read: base oil Miglyol 812N, 10% by weight.

For the compound `[Cl-].[Cl-].[Mn+2].c1cc2nc(c1)CN[C@@H]1CCCC[C@H]1NCCN[C@@H]1CCCC[C@H]1NC2` [GC4403], the “Mini-Pig BioA” value in series [1] (setting [9]) was found to be 9%. In [2], the “injury to the colon” value is on record as “significantly reduce the injury to the colon”. In addition, the radiation damage entry in [3] and in series [4] was “attenuate the radiation damage” each time. For the same compound, the inflammation entry in series [5] is “inhibit inflammation”. Besides, the joint disease entry in series [6] was “prevent joint disease”.
With `[Cl][Mn][Cl].c1cc2nc(c1)CN[C@H]1CCCC[C@@H]1NCCN[C@H]1CCCC[C@@H]1NC2` [GC4419, reference compound], the “Mini-Pig BioA” value is recorded as 9% in series [1] (setting [9]); 7% in series [1] (base oil Labrafil M2125 CS, 10% by weight); 8% in series [1] (base oil Maisine 35-1, 10% by weight); 8% in [1] (setting [10]); 9% in series [1] (base oil Peceol, 10% by weight). Besides, the solubility in water result in “Solubility in water” was “relatively readily soluble in water”. Moreover, in series [7], the “VEGFr inhibitor-induced pulmonary disease” value was “attenuate VEGFr inhibitor-induced pulmonary disease”. Besides, the oral mucositis result in [8] is recorded as “reduce oral mucositis”.
Take “Manganese(II)bis-racemic-2-phenylpropionato[(4aS,13aS,17aS,21aS)-1,2,3,4,4a,5,6,12,13,13a,14,15,16,17,17a,18,19,20,21,21a-Eicosahydro-11,7-nitrilo-7H-dibenzo[b,h][1,4,7,10]tetraazacycloheptadecine-κN5,κN13,κN18,κN21,κN22]- [GC4705]”: the “Mini-Pig BioA” value in [1] (setting [9]) was 23%; in series [1] (base oil Peceol, 10% by weight) it was 24%.
As to “Manganese(II)bis-racemic-phenylglycinato[2S,21S-Dimethyl(4aR,13aR,17aR,21aR)-1,2,3,4,4a,5,6,12,13,13a,14,15,16,17,17a,18,19,20,21,21a-Eicosahydro-11,7-nitrilo-7H-dibenzo[b,h][1,4,7,10]tetraazacycloheptadecine-κN5,κN13,κN18,κN21,κN22]- [GC4715]”, the “Mini-Pig BioA” value in series [1] (setting [9]) is recorded as 36%.
Same read-out and setting: then “Manganese(II)bis-racemic-phenylglycinato[6R-Methyl(4aR,13aR,17aR,21aR)-1,2,3,4,4a,5,6,12,13,13a,14,15,16,17,17a,18,19,20,21,21a-Eicosahydro-11,7-nitrilo-7H-dibenzo[b,h][1,4,7,10]tetraazacycloheptadecine-κN5,κN13,κN18,κN21,κN22]- [GC4716]”, with 34%; and “Manganese(II)bis-racemic-phenylglycinato[(4aR,13aR,17aR,21aR)-1,2,3,4,4a,5,6,12,13,13a,14,15,16,17,17a,18,19,20,21,21a-Eicosahydro-11,7-nitrilo-7H-dibenzo[b,h][1,4,7,10]tetraazacycloheptadecine-κN5,κN13,κN18,κN21,κN22]- [GC4717]”, with 26%.
On to “Manganese(II)bis-racemic-phenylglycinato[(4aS,13aS,17aS,21aS)-1,2,3,4,4a,5,6,12,13,13a,14,15,16,17,17a,18,19,20,21,21a-Eicosahydro-11,7-nitrilo-7H-dibenzo[b,h][1,4,7,10]tetraazacycloheptadecine-κN5,κN13,κN18,κN21,κN22]- [GC4720]”, for which the results for the “Mini-Pig BioA” value in series [1] (setting [9]) and in series [1] (setting [10]) were 33% and 32%, respectively.
